≈ marks a conversion by molar mass, not a printed value.
How the values were obtained:
[1] = system: Δarr M. abscessus; experiment: MIC assay, isogenic arr-deleted strain; assay type: cell-based, Mycobacterium abscessus; conditions: Table 10
Summary of the method: (§1)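 Two-fold, ten-point dilutions in 7H9 with 2% DMSO; mid-log culture diluted to OD600=0.1 (1×10^7 CFU/mL). Incubated 3 days at 37 °C, shaking 110 RPM; growth = Day 3 minus Day 0 OD600, expressed as percentage of drug-free growth and plotted against concentration. Two biological replicates.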

[2] = system: Mycobacterium abscessus; experiment: MIC against Mycobacterium abscessus (strain not given); assay type: cell-based; conditions: Table 13; read-out: Mab MIC
[3] = system: M. abscessus ATCC 19977; experiment: MIC assay in 96-well plate format, wild-type strain; assay type: cell-based, Mycobacterium abscessus; conditions: for MICWT: Table 10; for MIC: Table 15, heterocyclic aromatic carbamates, read-out: WT Mab MIC
Summary of the method: as §1

[4] = Plasma protein binding assay (rapid equilibrium dialysis); assay type: in vitro ADME
Summary of the method: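 Rapid equilibrium dialysis ran 4 h at 37° C (300 RPM) with compound-spiked plasma (10,000 ng/mL) on one side and PBS on the other. Each side was then mixed 1:1 […] to equalise matrix before LC-MS/MS quantification.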

[5] = Mouse pharmacokinetics studies; assay type: in vivo, CD-1 mice; conditions: for AUCp.o.: po; for C-25 deacylation i.v. / C-25 deacylation p.o.: AUC25-O-desacetyl RFB/AUCcompound × 100%, n.d. = undetectable
Procedure: Blood was captured in CB300 blood collection tubes containing K2EDTA and stored on ice. Plasma was recovered after centrifugation and stored at −80° C. until analyzed by high pressure liquid chromatography coupled to tandem mass spectrometry (LC-MS/MS). Pharmacokinetic parameters were calculated using non-compartmental pharmacokinetic analysis. […] Extracts were vortexed for 5 minutes and centrifuged at 4000 RPM for 5 minutes. 75 μL of supernatant was transferred for LC-MS/MS analysis and diluted with 75 μL of Milli-Q deionized water. Rifabutin was purchased from Carbosynth. C25-desacetyl rifabutin and rifabutin-d7 were purchased from Toronto Research Chemical. Verapamil was purchased from Sigma-Aldrich. […] Multiple-reaction monitoring of parent/daughter transitions in electrospray positive-ionization mode was used to quantify all analytes. […] Data processing was performed using Analyst software (version 1.6.2; Applied Biosystems Sciex).

[6] = p.o. doses of 10 mg/kg, Table 12

Compound	MICΔorr [1] [µM]	MIC [2] [µM]	MICWT [3] [µM]	ƒu [4] [%]	plasma unbound fraction ([4]; plasma) [%]	also measured
COc1ccc(C(=O)O[C@H]2[C@H](C)[C@H](O)[C@H](C)[C@@H](O)[C@@H](C)/C=C/C=C(\C)C(=O)NC3=C4NC5(CCN(CC(C)C)CC5)N=C4c4c(c(O)c(C)c5c4C(=O)[C@@](C)(O/C=C/[C@H](OC)[C@H]2C)O5)C3=O)cc1 [UMN10]	0.065	0.06 (≈ 0.0563 µg/mL)	0.06	0.02	0	–
CO[C@H]1/C=C/O[C@@]2(C)Oc3c(C)c(O)c4c(c3C2=O)C2=NC3(CCN(CC(C)C)CC3)NC2=C(NC(=O)/C(C)=C/C=C/[C@H](C)[C@H](O)[C@@H](C)[C@@H](O)[C@@H](C)[C@H](OC(=O)c2ccc(F)cc2)[C@@H]1C)C4=O [UMN11]	0.069	0.13 (≈ 0.121 µg/mL)	0.13	0.02	0.02	–
CO[C@H]1/C=C/O[C@@]2(C)Oc3c(C)c(O)c4c(c3C2=O)C2=NC3(CCN(CC(C)C)CC3)NC2=C(NC(=O)/C(C)=C/C=C/[C@H](C)[C@H](O)[C@@H](C)[C@@H](O)[C@@H](C)[C@H](OC(=O)c2ccc(Cl)cc2)[C@@H]1C)C4=O [UMN12]	0.22	0.13 (≈ 0.123 µg/mL)	0.13	0.01	0.01	–
CO[C@H]1/C=C/O[C@@]2(C)Oc3c(C)c(O)c4c(c3C2=O)C2=NC3(CCN(CC(C)C)CC3)NC2=C(NC(=O)/C(C)=C/C=C/[C@H](C)[C@H](O)[C@@H](C)[C@@H](O)[C@@H](C)[C@H](OC(=O)c2ccc(C(F)(F)F)cc2)[C@@H]1C)C4=O [UMN13]	0.66	0.24 (≈ 0.235 µg/mL)	0.24	0	0	–
CO[C@H]1/C=C/O[C@@]2(C)Oc3c(C)c(O)c4c(c3C2=O)C2=NC3(CCN(CC(C)C)CC3)NC2=C(NC(=O)/C(C)=C/C=C/[C@H](C)[C@H](O)[C@@H](C)[C@@H](O)[C@@H](C)[C@H](OC(=O)Nc2ccccc2)[C@@H]1C)C4=O [UMN14]	0.042	–	0.027	0.1	0.08	ƒAUC/MIC ([5]; Table 18): 0.8; CL ([5]; mouse, in vivo): 2.40 mL/min/kg; F ([5]; mouse, in vivo): 38%; Vd ([5]; mouse, in vivo): 1.93 L/kg; AUCp.o. ([5]; mouse, in vivo): 25625 ng·h/mL; MIC [3]: 0.027 µM (≈ 0.025 µg/mL)
CO[C@H]1/C=C/O[C@@]2(C)Oc3c(C)c(O)c4c(c3C2=O)C2=NC3(CCN(CC(C)C)CC3)NC2=C(NC(=O)/C(C)=C/C=C/[C@H](C)[C@H](O)[C@@H](C)[C@@H](O)[C@@H](C)[C@H](OC(=O)c2cccc(-c3ccccc3)c2)[C@@H]1C)C4=O [UMN18]	1.05	1.1 (≈ 1.08 µg/mL)	1.10	0.01	0	–
CO[C@H]1/C=C/O[C@@]2(C)Oc3c(C)c(O)c4c(c3C2=O)C2=NC3(CCN(CC(C)C)CC3)NC2=C(NC(=O)/C(C)=C/C=C/[C@H](C)[C@H](O)[C@@H](C)[C@@H](O)[C@@H](C)[C@H](OC(=O)c2cccc(C(F)(F)F)c2)[C@@H]1C)C4=O [UMN19]	0.36	0.48 (≈ 0.469 µg/mL)	0.48	0	0	–
COC1C=COC2(C)Oc3c(C)c(O)c4c(c3C2=O)C2=NC3(CCN(CC(C)C)CC3)NC2=C(NC(=O)C(C)=CC=CC(C)C(O)C(C)C(O)C(C)C(OC(=O)N2CCOC(C)C2)C1C)C4=O (centres unmarked) [UMN68]	0.033	–	0.061	–	–	plasma unbound fraction ([4]; Table 10): 2.40%
CO[C@H]1/C=C/O[C@@]2(C)Oc3c(C)c(O)c4c(c3C2=O)C2=NC3(CCN(CC(C)C)CC3)NC2=C(NC(=O)/C(C)=C/C=C/[C@H](C)[C@H](O)[C@@H](C)[C@@H](O)[C@@H](C)[C@H](OC(=O)Nc2nncs2)[C@@H]1C)C4=O [UMN69]	0.027	–	0.026	5.3	5.30	ƒAUC/MIC ([5]; Table 18): 26.5; CL ([5]; mouse, in vivo): 6.19 mL/min/kg; F ([5]; mouse, in vivo): 45%; Vd ([5]; mouse, in vivo): 1.14 L/kg; AUCp.o. ([5]; mouse, in vivo): 12103 ng·h/mL; MIC [3]: 0.026 µM (≈ 0.0242 µg/mL)
COC1C=COC2(C)Oc3c(C)c(O)c4c(c3C2=O)C2=NC3(CCN(CC(C)C)CC3)NC2=C(NC(=O)C(C)=CC=CC(C)C(O)C(C)C(O)C(C)C(OC(=O)N2CCOC(C)C2)C1C)C4=O (centres unmarked) [UMN70]	0.026	–	0.08	–	–	plasma unbound fraction ([4]; Table 10): 0.56%
CO[C@H]1/C=C/O[C@@]2(C)Oc3c(C)c(O)c4c(c3C2=O)C2=NC3(CCN(CC(C)C)CC3)NC2=C(NC(=O)/C(C)=C/C=C/[C@H](C)[C@H](O)[C@@H](C)[C@@H](O)[C@@H](C)[C@H](OC(=O)N2CCOC(C)(C)C2)[C@@H]1C)C4=O [UMN71]	0.032	–	0.076	–	–	plasma unbound fraction ([4]; Table 10): 0.39%
CCOC(=O)C1CN(C(=O)O[C@H]2[C@H](C)[C@H](O)[C@H](C)[C@@H](O)[C@@H](C)/C=C/C=C(\C)C(=O)NC3=C4NC5(CCN(CC(C)C)CC5)N=C4c4c(c(O)c(C)c5c4C(=O)[C@@](C)(O/C=C/[C@H](OC)[C@H]2C)O5)C3=O)CCO1 (some centres unmarked) [UMN72]	0.040	–	0.082	–	–	plasma unbound fraction ([4]; Table 10): 0.75%
CCN1CCN(C(=O)O[C@H]2[C@H](C)[C@H](O)[C@H](C)[C@@H](O)[C@@H](C)/C=C/C=C(\C)C(=O)NC3=C4NC5(CCN(CC(C)C)CC5)N=C4c4c(c(O)c(C)c5c4C(=O)[C@@](C)(O/C=C/[C@H](OC)[C@H]2C)O5)C3=O)CC1 [UMN73]	0.052	–	0.1	–	–	plasma unbound fraction ([4]; Table 10): 0.65%
CO[C@H]1/C=C/O[C@@]2(C)Oc3c(C)c(O)c4c(c3C2=O)C2=NC3(CCN(CC(C)C)CC3)NC2=C(NC(=O)/C(C)=C/C=C/[C@H](C)[C@H](O)[C@@H](C)[C@@H](O)[C@@H](C)[C@H](OC(=O)NCc2cn(Cc3ccccc3)nn2)[C@@H]1C)C4=O [UMN85]	0.025	–	0.027	–	–	plasma unbound fraction ([4]; Table 10): 0.30%
CO[C@H]1/C=C/O[C@@]2(C)Oc3c(C)c(O)c4c(c3C2=O)C2=NC3(CCN(CC(C)C)CC3)NC2=C(NC(=O)/C(C)=C/C=C/[C@H](C)[C@H](O)[C@@H](C)[C@@H](O)[C@@H](C)[C@H](OC(=O)c2ncccn2)[C@@H]1C)C4=O [UMN92]	–	0.057 (≈ 0.0519 µg/mL)	–	9.8	–	–
CO[C@H]1/C=C/O[C@@]2(C)Oc3c(C)c(O)c4c(c3C2=O)C2=NC3(CCN(CC(C)C)CC3)NC2=C(NC(=O)/C(C)=C/C=C/[C@H](C)[C@H](O)[C@@H](C)[C@@H](O)[C@@H](C)[C@H](OC(=O)c2cncs2)[C@@H]1C)C4=O [UMN93]	–	0.057 (≈ 0.0522 µg/mL)	–	1.6	–	–
CO[C@H]1/C=C/O[C@@]2(C)Oc3c(C)c(O)c4c(c3C2=O)C2=NC3(CCN(CC(C)C)CC3)NC2=C(NC(=O)/C(C)=C/C=C/[C@H](C)[C@H](O)[C@@H](C)[C@@H](O)[C@@H](C)[C@H](OC(=O)Nc2ccncc2)[C@@H]1C)C4=O [UMN105]	–	–	–	2.0	–	CL ([5]; mouse, in vivo): 7.57 mL/min/kg; F ([5]; mouse, in vivo): 63%; Vd ([5]; mouse, in vivo): 3.78 L/kg; ƒAUC/MIC ([5]; mouse, in vivo): 9.4; AUCp.o. ([5]; mouse, in vivo): 14210 ng·h/mL; MIC [3]: 0.025 µM (≈ 0.0231 µg/mL)
CO[C@H]1/C=C/O[C@@]2(C)Oc3c(C)c(O)c4c(c3C2=O)C2=NC3(CCN(CC(C)C)CC3)NC2=C(NC(=O)/C(C)=C/C=C/[C@H](C)[C@H](O)[C@@H](C)[C@@H](O)[C@@H](C)[C@H](OC(=O)c2cccnn2)[C@@H]1C)C4=O [UMN111]	–	0.051 (≈ 0.0465 µg/mL)	–	12.7	–	–
CO[C@H]1/C=C/O[C@@]2(C)Oc3c(C)c(O)c4c(c3C2=O)C2=NC3(CCN(CC(C)C)CC3)NC2=C(NC(=O)/C(C)=C/C=C/[C@H](C)[C@H](O)[C@@H](C)[C@@H](O)[C@@H](C)[C@H](OC(=O)c2ccccc2)[C@@H]1C)C4=O [drawing 217]	–	–	–	–	–	C-25 deacylation i.v. [5]: 0.03%; C-25 deacylation p.o. [5]: 0.008%; CL ([5]; Table 12): 2.4 mL/min/kg; Vd ([5]; Table 12): 2.9 L/kg; t1/2 ([5]; Table 12): 13.8 h; ƒAUC/MIC [5, 6]: 0.08; plasma unbound fraction ([4]; Table 12): 0.03%
CO[C@H]1/C=C/O[C@@]2(C)Oc3c(C)c(O)c4c(c3C2=O)C2=NC3(CCN(CC(C)C)CC3)NC2=C(NC(=O)/C(C)=C/C=C/[C@H](C)[C@H](O)[C@@H](C)[C@@H](O)[C@@H](C)[C@H](OC(=O)Nc2ccccc2)[C@@H]1C)C4=O [drawing 220]	–	–	–	–	–	C-25 deacylation i.v. [5]: 0.08%; C-25 deacylation p.o. [5]: 0.001%; CL ([5]; Table 12): 2.4 mL/min/kg; Vd ([5]; Table 12): 1.9 L/kg; t1/2 ([5]; Table 12): 9.3 h; ƒAUC/MIC [5, 6]: 0.43; plasma unbound fraction ([4]; Table 12): 0.0008%
CO[C@H]1/C=C/O[C@@]2(C)Oc3c(C)c(O)c4c(c3C2=O)C2=NC3(CCN(CC(C)C)CC3)NC2=C(NC(=O)/C(C)=C/C=C/[C@H](C)[C@H](O)[C@@H](C)[C@@H](O)[C@@H](C)[C@H](OC(=O)c2cccnc2)[C@@H]1C)C4=O [drawing 222]	–	–	–	–	–	CL ([5]; Table 12): 3.0 mL/min/kg; Vd ([5]; Table 12): 1.6 L/kg; ƒAUC/MIC [5, 6]: 28.2
